Experimental findings from ChEMBL document CHEMBL4732252, “Generating Selective Leads for Mer Kinase Inhibitors-Example of a Comprehensive Lead-Generation Strategy” (J Med Chem, 2021) are described below.

pIC50: −log10 of the molar value.

Series [1] can be described thus: Intrinsic clearance in rat hepatocytes assessed per 10^6 cells. Format: ADME, cell-based, Hepatocyte. Particulars: read-out: CLH.
The target of series [2] is T1, Receptor-type tyrosine-protein kinase FLT3 (Homo sapiens, UniProt P36888).
T1 sequence (P36888 whole entry): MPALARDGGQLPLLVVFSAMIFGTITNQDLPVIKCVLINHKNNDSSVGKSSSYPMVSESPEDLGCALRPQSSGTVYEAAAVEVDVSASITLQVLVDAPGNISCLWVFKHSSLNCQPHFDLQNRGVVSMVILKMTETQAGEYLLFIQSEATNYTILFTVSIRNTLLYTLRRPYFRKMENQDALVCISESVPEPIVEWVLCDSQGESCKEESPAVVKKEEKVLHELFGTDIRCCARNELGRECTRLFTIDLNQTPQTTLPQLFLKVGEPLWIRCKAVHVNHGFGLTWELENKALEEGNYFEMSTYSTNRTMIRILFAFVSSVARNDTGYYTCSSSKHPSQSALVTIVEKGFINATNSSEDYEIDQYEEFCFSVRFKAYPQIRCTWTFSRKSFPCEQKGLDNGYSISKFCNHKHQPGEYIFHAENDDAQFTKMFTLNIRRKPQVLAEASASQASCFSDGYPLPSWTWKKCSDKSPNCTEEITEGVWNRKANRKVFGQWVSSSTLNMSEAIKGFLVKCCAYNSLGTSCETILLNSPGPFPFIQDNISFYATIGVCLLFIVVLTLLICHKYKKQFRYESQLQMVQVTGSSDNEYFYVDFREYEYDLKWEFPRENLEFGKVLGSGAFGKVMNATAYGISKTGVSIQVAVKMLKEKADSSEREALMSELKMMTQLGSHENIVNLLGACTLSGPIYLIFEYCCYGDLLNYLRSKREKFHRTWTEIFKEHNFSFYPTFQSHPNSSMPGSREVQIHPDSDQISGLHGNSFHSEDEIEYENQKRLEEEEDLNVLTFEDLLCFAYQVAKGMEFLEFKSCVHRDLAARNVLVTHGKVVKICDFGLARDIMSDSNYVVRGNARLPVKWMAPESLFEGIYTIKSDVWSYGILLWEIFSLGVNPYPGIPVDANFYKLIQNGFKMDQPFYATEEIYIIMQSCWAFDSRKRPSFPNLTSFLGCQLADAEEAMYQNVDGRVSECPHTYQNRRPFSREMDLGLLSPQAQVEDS
In words: Inhibition of His6/TEV fused-GST-tagged Flt3 (unknown origin) (H564 to S993 residues) using Axltide (CKKSRGDYMTMQJ-acid) peptide as substrate preincubated for 30 mins followed by substrate and ATP addition at Km concentration measured after 75 mins by RapidFire LC-MS analysis.

The target in series [3] is T2, Tyrosine-protein kinase Mer (Homo sapiens, UniProt Q12866).
T2 sequence (Q12866 whole entry): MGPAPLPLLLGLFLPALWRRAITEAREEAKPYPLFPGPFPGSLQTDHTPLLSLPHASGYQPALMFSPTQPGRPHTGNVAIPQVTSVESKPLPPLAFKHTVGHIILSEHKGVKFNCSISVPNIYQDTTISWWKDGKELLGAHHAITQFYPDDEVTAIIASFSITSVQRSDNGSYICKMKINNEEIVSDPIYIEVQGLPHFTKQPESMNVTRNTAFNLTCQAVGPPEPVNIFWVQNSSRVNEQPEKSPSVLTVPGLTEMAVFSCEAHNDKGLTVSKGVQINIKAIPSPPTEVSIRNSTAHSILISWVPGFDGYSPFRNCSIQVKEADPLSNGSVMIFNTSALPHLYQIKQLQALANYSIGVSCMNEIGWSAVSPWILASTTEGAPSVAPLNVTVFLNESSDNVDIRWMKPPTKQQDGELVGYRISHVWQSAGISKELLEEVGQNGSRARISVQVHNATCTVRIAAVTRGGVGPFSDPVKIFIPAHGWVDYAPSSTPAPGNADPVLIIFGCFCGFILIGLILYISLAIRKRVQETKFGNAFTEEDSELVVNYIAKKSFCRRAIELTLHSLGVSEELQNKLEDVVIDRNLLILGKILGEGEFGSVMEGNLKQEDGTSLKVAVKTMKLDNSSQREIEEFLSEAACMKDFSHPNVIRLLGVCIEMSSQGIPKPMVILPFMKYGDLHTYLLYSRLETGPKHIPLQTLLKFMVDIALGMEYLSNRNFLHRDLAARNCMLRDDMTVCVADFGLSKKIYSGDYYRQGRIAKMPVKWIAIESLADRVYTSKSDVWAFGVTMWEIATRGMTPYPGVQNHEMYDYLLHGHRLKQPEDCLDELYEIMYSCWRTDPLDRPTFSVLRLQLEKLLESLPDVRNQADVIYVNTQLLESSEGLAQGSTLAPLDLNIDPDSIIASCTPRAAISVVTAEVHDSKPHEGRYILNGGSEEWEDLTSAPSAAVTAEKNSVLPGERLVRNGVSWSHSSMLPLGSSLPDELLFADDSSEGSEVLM
Nature of the series: Inhibition of 6His/thrombin cleavage site-fused Avi-tagged dephosphorylated MER (unknown origin) (R528 to M999 residues) using Axltide (CKKSRGDYMTMQJG-acid) peptide as substrate preincubated for 30 mins followed by substrate and ATP addition at Km concentration measured after 120 mins by RapidFire LC-MS analysis.

Series [4] deals with T3, Tyrosine-protein kinase Mer (Homo sapiens) (UniProt Q12866).
T3 sequence (whole entry): T2 sequence (Q12866 whole entry)
In words: Inhibition of 6His/thrombin cleavage site-fused Avi-tagged dephosphorylated MER (unknown origin) (R528 to M999 residues) at 1 uM using Axltide (CKKSRGDYMTMQJG-acid) peptide as substrate preincubated for 30 mins followed by substrate and ATP addition at Km concentration measured after 120 mins by RapidFire LC-MS analysis relative to control. The following applies: time 150.0 min.

Series [5] is filed under the species Homo sapiens. Nature of the series: Selectivity ratio of pIC50 for His6/TEV fused-GST-tagged Flt3 (unknown origin) (H564 to S993 residues) to pIC50 for GST-tagged AXL (unknown origin) ([…] residues).
The target of series [6] is Tyrosine-protein kinase receptor UFO (Homo sapiens) (UniProt P30530). In words: Inhibition of GST-tagged AXL (unknown origin) ([…] residues) at 1 uM using Axltide (CKKSRGDYMTMQJG-acid) peptide as substrate preincubated for 30 mins followed by substrate and ATP addition at Km concentration measured after 180 mins by RapidFire LC-MS analysis relative to control. The following applies: time 210.0 min.

Series [7] is filed under the species Homo sapiens. Nature of the series: Selectivity ratio of pIC50 for His6/TEV fused-GST-tagged Flt3 (unknown origin) (H564 to S993 residues) to pIC50 for 6His/thrombin cleavage site-fused Avi-tagged dephosphorylated MER (unknown origin) (R528 to M999 residues).

Chain of Tyrosine-protein kinase receptor UFO (Homo sapiens) (P30530 whole entry): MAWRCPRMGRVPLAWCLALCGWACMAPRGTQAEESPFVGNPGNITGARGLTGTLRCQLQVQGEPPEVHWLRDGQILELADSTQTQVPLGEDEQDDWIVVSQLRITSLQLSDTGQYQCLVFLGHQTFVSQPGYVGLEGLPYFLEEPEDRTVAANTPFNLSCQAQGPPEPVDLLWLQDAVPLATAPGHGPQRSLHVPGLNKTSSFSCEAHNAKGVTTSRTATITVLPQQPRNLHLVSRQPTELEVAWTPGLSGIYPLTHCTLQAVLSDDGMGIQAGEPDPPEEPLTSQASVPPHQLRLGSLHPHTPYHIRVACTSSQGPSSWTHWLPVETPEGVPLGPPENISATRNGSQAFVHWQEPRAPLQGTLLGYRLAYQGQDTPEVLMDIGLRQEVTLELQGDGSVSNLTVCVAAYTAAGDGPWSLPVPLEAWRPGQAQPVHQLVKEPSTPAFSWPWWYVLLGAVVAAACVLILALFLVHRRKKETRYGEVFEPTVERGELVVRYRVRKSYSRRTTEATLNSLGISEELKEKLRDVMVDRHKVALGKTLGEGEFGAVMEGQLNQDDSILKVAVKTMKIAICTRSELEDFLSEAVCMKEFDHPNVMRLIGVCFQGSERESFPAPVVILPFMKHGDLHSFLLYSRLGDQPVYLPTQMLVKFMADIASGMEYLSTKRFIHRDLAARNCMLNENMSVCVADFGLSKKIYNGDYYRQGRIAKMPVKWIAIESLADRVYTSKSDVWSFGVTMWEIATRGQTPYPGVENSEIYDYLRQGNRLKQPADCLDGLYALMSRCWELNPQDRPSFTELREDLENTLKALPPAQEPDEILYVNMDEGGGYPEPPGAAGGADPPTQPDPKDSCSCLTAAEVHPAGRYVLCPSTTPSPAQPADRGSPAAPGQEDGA

Consider `COc1cc2ncnc(Nc3cnc(OCCC4CC4)nc3)c2cc1OCC1CCNCC1`, for which the hepatocyte CLint in series [1] is 3 µL/min/1e6 cells. In addition, the values for the pIC50 in series [2] and in series [3] were < 4.30 and 6.60, respectively.
The corresponding values for `C[C@@H]1CN(c2cnc(Nc3cc(F)c(OCC4CC4)c(F)c3)nc2NC2CCOCC2)CCN1` are < 2.4 µL/min/1e6 cells, 5.00 and 7.30.
The like results for `CN(Cc1ccc2nccn2c1)c1nnc(-c2ccc(-c3ccccc3Cl)cc2)o1` were, in that order, 21 µL/min/1e6 cells, 4.80 and 8.30.
For `CNC(=O)c1sc(N2CC3CC2(CNC(=O)c2c[nH]c4ncc(Cl)cc24)C3)nc1C(F)(F)F`, the hepatocyte CLint in series [1] worked out at 120 µL/min/1e6 cells. Further, the inhibition in series [4] and in series [6] was > 75% throughout. Also, the Ratio pIC50 in the series filed under Homo sapiens [5] and in the series listed under Homo sapiens [7] was > 60 each time. Also, the pIC50 in series [2] is 5.80; in series [3], 7.60.
For `O=S(=O)(c1ccc(Nc2ncc(N3CCOCC3)c(Nc3ccccc3)n2)cc1)N1CCCCC1`, the hepatocyte CLint in series [1] came to 88 µL/min/1e6 cells. Also, the negative logarithm of the IC50 (pIC50) in series [2] is < 4.40; in series [3], 7.30.
The like results for `CN(Cc1ccc2nccn2c1)c1nnc(-c2ccc(OC3CCCC3)cc2)o1` were, in that order, 52 µL/min/1e6 cells, 4.70 and 7.00.
Take `CN(Cc1ccc2c(c1)CCCO2)c1nnc(-c2ccc(-c3ccccc3Cl)cc2)o1`: the hepatocyte CLint in series [1] was 19 µL/min/1e6 cells. In addition, the negative logarithm of the IC50 (pIC50) is < 4.00 in series [2] and 7.60 in series [3].
The corresponding values for `CNC(=O)c1sc(N2CC3CC2(CNC(=O)c2c[nH]c4ncccc24)C3)nc1C(F)(F)F` are 33 µL/min/1e6 cells, 5.30 and 7.60.
The like results for `CCn1c(-c2nnc(N(C)Cc3ccc4nccn4c3)o2)nc2ccccc21` were, in that order, 22 µL/min/1e6 cells, 5.20 and 6.20.
The like results for `Cc1cc(N(C)C)ccc1-c1nnc(N(C)Cc2ccc3nccn3c2)o1` were, in that order, 44 µL/min/1e6 cells, 4.50 and 6.20.
Consider `CNC(=O)c1sc(N2CC3CC2(CNC(=O)c2c[nH]c4ncc(C)cc24)C3)nc1C(F)(F)F`, for which the hepatocyte CLint in series [1] amounted to 92 µL/min/1e6 cells. The results for the pIC50 in series [2] and in series [3] were 5.80 and 7.90, respectively.
The corresponding values for `Cc1c(C(=O)Nc2ccc(Oc3ccnc4[nH]cc(-c5ccccc5)c34)c(F)c2)c(=O)n(-c2ccc(F)cc2)n1C` are 210 µL/min/1e6 cells, 7.20 and 8.80.
The like results for `CNC(=O)c1sc(N2CC3CC2(CNC(=O)c2c[nH]c4ncc(C(F)(F)F)cc24)C3)nc1C(F)(F)F` were, in that order, 78 µL/min/1e6 cells, < 4.00 and 7.20.
The like results for `CN(Cc1ccc2nccn2c1)c1nnc(-c2ccc(-c3ccccc3Cl)nc2)o1` were, in that order, 16 µL/min/1e6 cells, 4.80 and 6.90.
As to `CNc1nc(OCC2CCC2)nc2c1ncn2Cc1c(F)cccc1F`, in series [1], the hepatocyte CLint was found to be 160 µL/min/1e6 cells. For the same molecule, the pIC50 is < 4.30 in series [2] and 7.30 in series [3].
The like results for `CN(Cc1ccc2nccn2c1)c1nnc(-c2ncc(C(F)(F)F)cc2Cl)o1` were, in that order, 6 µL/min/1e6 cells, < 4.00 and 6.10.
The corresponding values for `CNC(=O)C[C@@H](NC(=O)[C@@H](CCc1ccccc1)NC(=O)c1c(C)noc1-c1snnc1C)c1ccc(C(F)(F)F)cc1` are 260 µL/min/1e6 cells, < 4.00 and 8.30.
